Measurements from patent US20180132485A1, “USE OF HYDROXYAPATITE AS A CARRIER OF NUTRITIONAL ELEMENTS AND VEGETAL EXTRACTS FOR TREATING PLANTS” (NDG NATURAL DEVELOPMENT GROUP S.R.L., priority 2015, published 2018).

Test system: Agrobacterium vitis
Assay: Inhibition of growth of Agrobacterium vitis strains on PDA plates (diameters of inhibitory zones)
Format: cell-based
Settings: 3% v/v; 6 strains; 28° C., 2-5 days
Experimental: The biological efficacy of the test agents was determined in terms of inhibition of the growth. To this aim 6 strains of Agrobacterium vitis from different growing areas worldwide, were grown in vitro. The strains of A. vitis, were inoculated on Petri dishes containing PDA (Potato Dextrose Agar), in the ratio of approximately 10 to 8 cells. After plating the bacteria, 5 holes (6 mm) were drilled in the substrate (one at the center of the plate and 4 equally spaced around the central hole). Each plate was filled with 20 microliters of test substance at the concentrations indicated; for each substance and concentration, 3 replies were set up. The central hole was filled with 20 microliters of sterile water, which represented the untreated control. The plates were incubated at 28° C., for 2-5 days.
After the expiration of the incubation period, for each tested strain and for each substance and concentration, the diameters of the inhibitory zones were considered (average of two orthogonal diameters of each inhibitory area). The collected data were subjected to analysis of variance ANOVA and comparison of averages with SNK test.

OCl [Sodium Hypochlorite]
inhibition of the growth (inhibitory zones): completely inhibited
